Assay results published in patent publication US12065442B2, “Tropomyosin receptor kinase (TRK) degradation compounds and methods of use” (Cullgen (Shanghai), Inc., priority 2018, dated 2024).
Where two headings read alike, the source gives them in different places.

System: KM12 cells
Assay: Cell viability assay (CellTiter-Glo) in KM12 cells
Format: cell-based
Settings: Homo sapiens, 72 h, KM12 cell viability, CellTiter-Glo, 3 days, read-out: IC50

Cn1c(=O)n(C2CCC(=O)NC2=O)c2ccc(NCCCN3CCN(c4cccc(-c5cnc6ccc(N7CCC[C@@H]7c7cccc(F)c7)nn56)n4)CC3)cc21 (stereo partly drawn) [TR-221, 3-(5-((3-(4-(6-(6-((R)-2-(3-Fluorophenyl)pyrrolidin-1-yl)imidazo[1,2-b]pyridazin-3-yl)pyridin-2-yl)piperazin-1-yl)propyl)amino)-3-methyl-2-oxo-2,3-dihydro-1H-benzo[d]imidazol-1-yl)piperidine-2,6-dione]
IC50 (Table 4): 8.5 nM

O=C(CN1CCN(c2cccc(-c3cnc4ccc(N5CCC[C@@H]5c5cccc(F)c5)nn34)n2)CC1)NCCCCCCCCNc1cccc2c1C(=O)N(C1CCC(=O)NC1=O)C2=O (stereo partly drawn) [TR-102, N-(8-((2-(2,6-dioxopiperidin-3-yl)-1,3-dioxoisoindolin-4-yl)amino)octyl)-2-(4-(6-(6-((R)-2-(3-fluorophenyl)pyrrolidin-1-yl)imidazo[1,2-b]pyridazin-3-yl)pyridin-2-yl)piperazin-1-yl)acetamide]
IC50 (Table 3): 44.4 nM

O=C(CN1CCN(c2cccc(-c3cnc4ccc(N5CCC[C@@H]5c5cccc(F)c5)nn34)n2)CC1)NCCOCCNc1ccc2c(c1)C(=O)N(C1CCC(=O)NC1=O)C2=O (stereo partly drawn) [TR-135, N-(2-(2-((2-(2,6-dioxopiperidin-3-yl)-1,3-dioxoisoindolin-5-yl)amino)ethoxy)ethyl)-2-(4-(6-(6-((R)-2-(3-fluorophenyl)pyrrolidin-1-yl)imidazo[1,2-b]pyridazin-3-yl)pyridin-2-yl)piperazin-1-yl)acetamide]
IC50 (Table 3): 0.9 nM

Cc1ncsc1-c1ccc(CNC(=O)[C@@H]2C[C@@H](O)CN2C(=O)[C@@H](NC(=O)CCOCCOCCOCCC(=O)N2CCN(c3ccc(C(=O)Nc4n[nH]c5ccc(Cc6cc(F)cc(F)c6)cc45)c(NC4CCOCC4)c3)CC2)C(C)(C)C)cc1 [CPD-039, (2S,4R)-1-((S)-2-(tert-butyl)-16-(4-(4-((5-(3,5-Difluorobenzyl)-1H-indazol-3-yl)carbamoyl)-3-((tetrahydro-2H-pyran-4-yl)amino)phenyl)piperazin-1-yl)-4,16-dioxo-7,10,13-trioxa-3-azahexadecanoyl)-4-hydroxy-N-(4-(4-methylthiazol-5-yl)benzyl)pyrrolidine-2-carboxamide]
IC50 (Table 2): 222 nM

O=C1CCC(N2C(=O)c3cccc(NCCCCCC(=O)N4CCN(c5ccc(C(=O)Nc6n[nH]c7ccc(Cc8cc(F)cc(F)c8)cc67)c(NC6CCOCC6)c5)CC4)c3C2=O)C(=O)N1 (stereo not shown) [CPD-056, N-(5-(3,5-difluorobenzyl)-1H-indazol-3-yl)-4-(4-(6-((2-(2,6-dioxopiperidin-3-yl)-1,3-dioxoisoindolin-4-yl)amino)hexanoyl)piperazin-1-yl)-2-((tetrahydro-2H-pyran-4-yl)amino)benzamide]
IC50 (Table 2): 12 nM

O=C1CCC(N2C(=O)c3ccc(NCCOCCOCCOCCC(=O)N4CCN(c5cccc(-c6cnc7ccc(N8CCC[C@@H]8c8cccc(F)c8)nn67)n5)CC4)cc3C2=O)C(=O)N1 (stereo partly drawn) [TR-114, 2-(2,6-Dioxopiperidin-3-yl)-5-((2-(2-(2-(3-(4-(6-(6-((R)-2-(3-fluorophenyl)pyrrolidin-1-yl)imidazo[1,2-b]pyridazin-3-yl)pyridin-2-yl)piperazin-1-yl)-3-oxopropoxy)ethoxy)ethoxy)ethyl)amino)isoindoline-1,3-dione]
IC50 (Table 3): 16.9 nM

O=C(CN1CCN(c2ccc(C(=O)Nc3n[nH]c4ccc(Cc5cc(F)cc(F)c5)cc34)c(NC3CCOCC3)c2)CC1)NCCCCCCCCNc1cccc2c1C(=O)N(C1CCC(=O)NC1=O)C2=O (stereo not shown) [TR-148, N-(5-(3,5-Difluorobenzyl)-1H-indazol-3-yl)-4-(4-(2-((8-((2-(2,6-dioxopiperidin-3-yl)-1,3-dioxoisoindolin-4-yl)amino)octyl)amino)-2-oxoethyl)piperazin-1-yl)-2-((tetrahydro-2H-pyran-4-yl)amino)benzamide]
IC50 (Table 3): 23.2 nM

O=C1CCC(N2C(=O)c3ccc(NC(=O)CN4CCN(c5cccc(-c6cnc7ccc(N8CCC[C@@H]8c8cccc(F)c8)nn67)n5)CC4)cc3C2=O)C(=O)N1 (stereo partly drawn) [TR-233, N-(2-(2,6-Dioxopiperidin-3-yl)-1,3-dioxoisoindolin-5-yl)-2-(4-(6-(6-((R)-2-(3-fluorophenyl)pyrrolidin-1-yl)imidazo[1,2-b]pyridazin-3-yl)pyridin-2-yl)piperazin-1-yl)acetamide]
IC50 (Table 4): 5 nM

Cn1c(=O)n(C2CCC(=O)NC2=O)c2ccc(OCCN3CCN(c4cccc(-c5cnc6ccc(N7CCC[C@@H]7c7cccc(F)c7)nn56)n4)CC3)cc21 (stereo partly drawn) [TR-246, 3-(5-(2-(4-(6-(6-((R)-2-(3-fluorophenyl)pyrrolidin-1-yl)imidazo[1,2-b]pyridazin-3-yl)pyridin-2-yl)piperazin-1-yl)ethoxy)-3-methyl-2-oxo-2,3-dihydro-1H-benzo[d]imidazol-1-yl)piperidine-2,6-dione]
IC50 (Table 4): 101 nM

O=C1CCC(N2C(=O)Cc3c(NCCN4CCN(c5cccc(-c6cnc7ccc(N8CCC[C@@H]8c8cccc(F)c8)nn67)n5)CC4)cccc32)C(=O)N1 (stereo partly drawn) [TR-236, 3-(4-((2-(4-(6-(6-((R)-2-(3-Fluorophenyl)pyrrolidin-1-yl)imidazo[1,2-b]pyridazin-3-yl)pyridin-2-yl)piperazin-1-yl)ethyl)amino)-2-oxoindolin-1-yl)piperidine-2,6-dione]
IC50 (Table 4): 99 nM

Cc1ncsc1-c1ccc(CNC(=O)[C@@H]2C[C@@H](O)CN2C(=O)[C@@H](NC(=O)COCCOCCOCCOCCOCC(=O)N2CCN(c3ccc(C(=O)Nc4n[nH]c5ccc(Cc6cc(F)cc(F)c6)cc45)c(NC4CCOCC4)c3)CC2)C(C)(C)C)cc1 [CPD-040, (2S,4R)-1-((S)-2-(tert-butyl)-20-(4-(4-((5-(3,5-Difluorobenzyl)-1H-indazol-3-yl)carbamoyl)-3-((tetrahydro-2H-pyran-4-yl)amino)phenyl)piperazin-1-yl)-4,20-dioxo-6,9,12,15,18-pentaoxa-3-azaicosanoyl)-4-hydroxy-N-(4-(4-methylthiazol-5-yl)benzyl)pyrrolidine-2-carboxamide]
IC50 (Table 2): 600 nM

O=C(CN1CCN(c2ccc(C(=O)Nc3n[nH]c4ccc(Cc5cc(F)cc(F)c5)cc34)c(NC3CCOCC3)c2)CC1)NCCOCCOCCOCCOCCOCCNc1cccc2c1C(=O)N(C1CCC(=O)NC1=O)C2=O (stereo not shown) [CPD-065, N-(5-(3,5-difluorobenzyl)-1H-indazol-3-yl)-4-(4-(20-((2-(2,6-dioxopiperidin-3-yl)-1,3-dioxoisoindolin-4-yl)amino)-2-oxo-6,9,12,15,18-pentaoxa-3-azaicosyl)piperazin-1-yl)-2-((tetrahydro-2H-pyran-4-yl)amino)benzamide]
IC50 (Table 2): 72.6 nM

O=C1CCC(N2C(=O)c3ccc(NCCOCCOCCOCCOCCC(=O)N4CCN(c5cccc(-c6cnc7ccc(N8CCC[C@@H]8c8cccc(F)c8)nn67)n5)CC4)cc3C2=O)C(=O)N1 (stereo partly drawn) [TR-120, 2-(2,6-Dioxopiperidin-3-yl)-5-((15-(4-(6-(6-((R)-2-(3-fluorophenyl)pyrrolidin-1-yl)imidazo[1,2-b]pyridazin-3-yl)pyridin-2-yl)piperazin-1-yl)-15-oxo-3,6,9,12-tetraoxapentadecyl)amino)isoindoline-1,3-dione]
IC50 (Table 3): 10 nM

O=C1CCC(N2C(=O)c3ccc(NCCCC(=O)N4CCN(c5cccc(-c6cnc7ccc(N8CCC[C@@H]8c8cccc(F)c8)nn67)n5)CC4)cc3C2=O)C(=O)N1 (stereo partly drawn) [TR-168, 2-(2,6-Dioxopiperidin-3-yl)-5-((4-(4-(6-(6-((R)-2-(3-fluorophenyl)pyrrolidin-1-yl)imidazo[1,2-b]pyridazin-3-yl)pyridin-2-yl)piperazin-1-yl)-4-oxobutyl)amino)isoindoline-1,3-dione]
IC50 (Table 3): 2.9 nM

O=C1CCC(N2C(=O)c3ccc(NCCC4CCN(c5cccc(-c6cnc7ccc(N8CCC[C@@H]8c8cccc(F)c8)nn67)n5)CC4)cc3C2=O)C(=O)N1 (stereo partly drawn) [TR-180, 2-(2,6-Dioxopiperidin-3-yl)-5-((2-(1-(6-(6-((R)-2-(3-fluorophenyl)pyrrolidin-1-yl)imidazo[1,2-b]pyridazin-3-yl)pyridin-2-yl)piperidin-4-yl)ethyl)amino)isoindoline-1,3-dione]
IC50 (Table 3): 33.8 nM

O=C1CCC(N2C(=O)c3cccc(NCCCCCCCC(=O)N4CCN(c5cccc(-c6cnc7ccc(N8CCC[C@@H]8c8cccc(F)c8)nn67)n5)CC4)c3C2=O)C(=O)N1 (stereo partly drawn) [CPD-024, 2-(2,6-Dioxopiperidin-3-yl)-4-((8-(4-(6-(6-((R)-2-(3-fluorophenyl)pyrrolidin-1-yl)imidazo[1,2-b]pyridazin-3-yl)pyridin-2-yl)piperazin-1-yl)-8-oxooctyl)amino)isoindoline-1,3-dione]
IC50 (Table 2): 10 nM

O=C(CN1CCN(c2cccc(-c3cnc4ccc(N5CCC[C@@H]5c5cccc(F)c5)nn34)n2)CC1)NCCOCCOCCOCCOCCNc1cccc2c1C(=O)N(C1CCC(=O)NC1=O)C2=O (stereo partly drawn) [TR-108, N-(14-((2-(2,6-dioxopiperidin-3-yl)-1,3-dioxoisoindolin-4-yl)amino)-3,6,9,12-tetraoxatetradecyl)-2-(4-(6-(6-((R)-2-(3-fluorophenyl)pyrrolidin-1-yl)imidazo[1,2-b]pyridazin-3-yl)pyridin-2-yl)piperazin-1-yl)acetamide]
IC50 (Table 3): 4 nM

Cc1ncsc1-c1ccc(CNC(=O)[C@@H]2C[C@@H](O)CN2C(=O)[C@@H](NC(=O)CCCCCC(=O)N2CCN(c3cccc(-c4cnc5ccc(N6CCC[C@@H]6c6cccc(F)c6)nn45)n3)CC2)C(C)(C)C)cc1 [CPD-004, (2S,4R)-1-((S)-2-(7-(4-(6-(6-((R)-2-(3-Fluorophenyl)pyrrolidin-1-yl)imidazo[1,2-b]pyridazin-3-yl)pyridin-2-yl)piperazin-1-yl)-7-oxoheptanamido)-3,3-dimethylbutanoyl)-4-hydroxy-N-(4-(4-methylthiazol-5-yl)benzyl)pyrrolidine-2-carboxamide]
IC50 (Table 2): 176 nM

Cc1ncsc1-c1ccc(CNC(=O)[C@@H]2C[C@@H](O)CN2C(=O)[C@@H](NC(=O)CCOCCC(=O)N2CCN(c3cccc(-c4cnc5ccc(N6CCC[C@@H]6c6cccc(F)c6)nn45)n3)CC2)C(C)(C)C)cc1 [CPD-007, (2S,4R)-1-((S)-2-(3-(3-(4-(6-(6-((R)-2-(3-Fluorophenyl)pyrrolidin-1-yl)imidazo[1,2-b]pyridazin-3-yl)pyridin-2-yl)piperazin-1-yl)-3-oxopropoxy)propanamido)-3,3-dimethylbutanoyl)-4-hydroxy-N-(4-(4-methylthiazol-5-yl)benzyl)pyrrolidine-2-carboxamide]
IC50 (Table 2): > 1000 nM
